Earlier results as cited in publication PMC6714113 (Research in Pharmaceutical Sciences, 2019).

Details: read-out: IC50 (cytotoxicity)

N[C@@H](Cc1ccc(B(O)O)cc1)C(=O)O [BPA, boronophenylalanine]
IC50: > 4 mM
